The target in one assay is B. subtilis BshA (Bacillus subtilis, UniProt P42982). Kind of assay: HPLC detection of UDP release at […] nm. Format: biochemical.
Another assay addresses T1, MshA (Mycolicibacterium smegmatis, UniProt A0QQZ8).
T1 sequence (A0QQZ8 1-434): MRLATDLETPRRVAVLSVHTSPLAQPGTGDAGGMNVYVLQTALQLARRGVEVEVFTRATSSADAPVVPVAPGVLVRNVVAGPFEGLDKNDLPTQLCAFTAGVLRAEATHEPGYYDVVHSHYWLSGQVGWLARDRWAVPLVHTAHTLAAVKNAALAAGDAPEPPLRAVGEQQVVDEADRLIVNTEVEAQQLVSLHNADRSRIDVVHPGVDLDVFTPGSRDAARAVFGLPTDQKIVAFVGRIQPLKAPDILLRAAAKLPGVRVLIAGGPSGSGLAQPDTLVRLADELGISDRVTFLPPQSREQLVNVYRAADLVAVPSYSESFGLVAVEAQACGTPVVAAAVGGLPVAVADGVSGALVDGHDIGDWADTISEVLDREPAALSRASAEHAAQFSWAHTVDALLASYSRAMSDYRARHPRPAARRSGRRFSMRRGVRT
Kind of assay: MshA glycosyltransferase assay. The conditions noted are these: 1 mM UDP-GlcNAc, 1 mM 1-L-inositol-1-phosphate. Format: biochemical.

The structures appear in SMILES notation.

In general, IC50 refers to the point on the concentration scale where inhibition reaches its midpoint. Low values mean greater potency, high ones weaker potency.

Sequence of B. subtilis BshA (P42982 whole entry): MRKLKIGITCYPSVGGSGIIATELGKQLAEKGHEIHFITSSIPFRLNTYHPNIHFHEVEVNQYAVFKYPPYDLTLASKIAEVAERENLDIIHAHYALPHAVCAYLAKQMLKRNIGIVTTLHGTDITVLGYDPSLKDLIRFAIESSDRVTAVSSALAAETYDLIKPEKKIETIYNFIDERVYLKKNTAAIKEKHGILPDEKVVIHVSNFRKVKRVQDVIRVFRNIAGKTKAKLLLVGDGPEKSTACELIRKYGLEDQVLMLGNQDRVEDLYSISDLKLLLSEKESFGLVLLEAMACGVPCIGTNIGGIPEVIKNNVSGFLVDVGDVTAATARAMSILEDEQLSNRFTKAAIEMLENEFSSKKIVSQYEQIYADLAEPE

Regarding `N[C@@H](CS)C(=O)N[C@H]1[C@@H](O[C@@H](CC(=O)O)C(=O)O)O[C@H](CO)[C@@H](O)[C@@H]1O` [BSH, bacillithiol], on B. subtilis BshA, 700 µM corresponded to half-maximal inhibition (IC50).
Take `CC(=O)N[C@@H](CS)C(=O)NC1[C@@H](O[C@@H]2[C@H](O)[C@H](O)[C@@H](O)[C@H](O)[C@H]2O)O[C@H](CO)[C@@H](O)[C@@H]1O` (stereo partly drawn) [MSH, mycothiol]: half-maximal inhibition on MshA (preincubated with MSH, feedback inhibition) (IC50) was put at 3600 µM.
On MshA (preincubated with inhibitor), `CC(=O)N[C@H]1[C@@H](OP(=O)(O)OP(=O)(O)OC[C@H](C=O)OC(C=O)n2ccc(=O)[nH]c2=O)O[C@H](CO)[C@@H](O)[C@@H]1O` (stereo partly drawn) [O-UDP-GlcNAc, 2’,3’-dialdehydo-UDP-N-acetylglucosamine] came in with a half-maximal inhibitory concentration (IC50) of 200 µM.

(Values after PMC3668096 (FEBS letters, 2012).)
